Reference: patent US12304912B2, “Fused bicyclic RAF inhibitors and methods for use thereof” (Jazz Pharmaceuticals Ireland Limited, priority 2020, dated 2025)
Read-outs that look alike come from different tables or passages of the source.

How the values were obtained:
[1] = test system: constitutive ERK phosphorylation in WiDr cells; assay: WiDr AlphaLISA SureFire pERK1/2 cellular assay; type: cell-based, human; conditions: WiDr cells, 2 hr; for IC50: Homo sapiens, read-out: pERK WiDr (2 hr) Abs pIC50 (converted)
Experimental: The human HCT-116 colorectal carcinoma cell line (ATCC CCL-247) endogenously expresses the KRAS^G13D mutation, which leads to constitutive activation of the MAP kinase pathway and phosphorylation of ERK. […] Assay read outs took place 2 or 24 hours after dosing with compounds. On the first day, HCT-116 cells were harvested, resuspended in growth medium (McCoys5A with Glutamax (Life Technologies 36600021) and 10% heat-inactivated fetal bovine serum (Sigma F9665)), and counted. Cells were plated in 100 μl per well in each well of a 96-well culture dish (Sigma CLS3598) to a final density of 30,000 (2 hr read) or 15,000 (24 hr read) cells per well and incubated over night at 37° C. and 5% CO2. On day 2, the growth medium was exchanged for dosing medium (McCoys5A with Glutamax (Life Technologies 36600021) and 1% heat-inactivated fetal bovine serum (Sigma F9665)) and the cells were dosed with compounds to produce a 10-point dose response, where the top concentration was 1 μM and subsequent concentrations were at 1/3 log dilution intervals. A matched DMSO control was included. The cells were subsequently incubated for either 2 or 24 hours at 37° C. and 5% CO2. After incubation, media was removed and the cells were incubated with lysis buffer containing phosphatase inhibitors for 15 minutes at room temperature. Cell lysates were transferred to a 12 area 96 well white Optiplate™ (Perkin Elmer 6005569) and incubated with anti-mouse IgG acceptor beads, a biotinylated anti-ERK1/2 rabbit antibody recognizing both phosphorylated and non-phosphorylated ERK1/2, a mouse antibody targeted to the Thr202/Tyr204 epitope and recognizing phosphorylated ERK proteins only, and streptavidin-coated donor beads. The biotinylated antibody binds to the streptavidin-coated donor beads and the phopsho-ERK1/2 antibody binds to the acceptor beads. Plates were read on an EnVision reader (Perkin Elmer) and excitation of the beads at 680 nm with a laser induced the release of singlet oxygen molecules from the donor beads that trigger energy transfer to the acceptor beads in close proximity, producing a signal that can be measured at […]. Both antibodies bound to phosphorylated ERK proteins, bringing the donor and acceptor beads into close proximity. All data were analyzed using the Dotmatics or GraphPad Prism software packages. Inhibition of ERK phosphorylation was assessed by determination of the absolute IC50 value, which is defined as the concentration of compound required to decrease the level of phosphorylated ERK proteins by 50% when compared to DMSO control.
WiDr AlphaLISA SureFire pERK1/2 Cellular Assay
The human WiDr colorectal adenocarcinoma cell line (ATCC CCL-218) endogenously expresses the BRAF^V600E mutation, which leads to constitutive activation of the MAP kinase pathway and phosphorylation of ERK. […] The main procedure is essentially the same as for HCT-116 cells (above), with the following adjustments to the growth medium (Eagle's Minimum Essential Medium (Sigma M2279) with 1× Glutamax (Life Technologies 35050038), 1× Sodium-Pyruvate (Sigma S8636), and 10% heat-inactivated fetal bovine serum (Sigma F9665)), the dosing medium (Eagle's Minimum Essential Medium (Sigma M2279) with 1× Glutamax (Life Technologies 35050038), 1× Sodium-Pyruvate (Sigma S8636), and 1% heat-inactivated fetal bovine serum (Sigma F9665)), and the seeding densities (2 hr: 50,000 cells per well; 24 hr: 35,000 cells per well). Moreover, the compounds were dosed in 1/2 log dilution intervals with the top concentration of 10 μM.

[2] = Plasma protein binding assay, human plasma (hPPB); type: in vitro ADME; conditions: 5 μM
Procedure, shortened: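 Equilibrium dialysis of 5 μM compound in previously frozen human or mouse plasma against phosphate buffer, 4 h at 37 °C. Both chambers quantified by LC-MS/MS; % free = (1−((PC−PF)/PC))×100.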

[3] = test system: RAF dimers in HCT-116 cells; assay: HCT-116 AlphaLISA SureFire pERK1/2 cellular assay (dimer); type: cell-based; conditions: Homo sapiens, HCT-116, 1 hr
Procedure, shortened: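 HCT-116 (KRAS G13D) cells, 30,000/well, pretreated 1 h with 1 μM Encorafenib to induce RAF dimers, washed, then dosed 1 h at 37° C with compound (10-point, top 10 μM, 1/2 log steps) in growth medium. pERK1/2 (T202/Y204) measured by AlphaLISA SureFire; absolute IC50 versus DMSO control.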

[4] = Microsomal stability assay, mouse liver microsomes (MLM); type: in vitro ADME; conditions: 0.5 mg/mL protein, 1 μM substrate
Procedure, shortened: (§1)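 Substrate depletion: 1 μM compound incubated at 37° C. with cryopreserved mouse or human liver microsomes at 0.5 mg·mL^−1 protein. Timed aliquots quenched in ice-cold organic solvent and measured by LC-MS/MS; t1/2 and CLint derived from the slope of ln % remaining versus time.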

[5] = Microsomal stability assay, human liver microsomes (HLM); type: in vitro ADME; conditions: 0.5 mg/mL protein, 1 μM substrate
Procedure, shortened: as §1

[6] = equilibrium dialysis 4 hours at 37° C.
[7] = HCT116 cells, dimer, read-out: pERK HCT116 dimer (1 hr) plC50 (converted)
[8] = equilibrium dialysis 4 hours 37° C.
[9] = HCT116 cells pre-dosed with 1 μM Encorafenib, read-out: pERK HCT116 dimer (1 hr) pIC50 (converted)

Row | SMILES | IC50 ([1]; Abs) [nM] | hPPB (% free) [2, 6] [% free] | IC50 [3, 7] [nM] | MLM (CLint) ([4]; 37° C.) [µL/min/mg] | microsomal CLint at 1 μM ([5]; 37° C.) [µL/min/mg] | IC50 ([1]; absolute IC50) [nM] | hPPB (% free) [2, 8] [% free] | IC50 [3, 9] [nM] | microsomal CLint at 1 μM [4] [µL/min/mg] | microsomal CLint at 1 μM [5] [µL/min/mg] | microsomal CLint at 1 μM ([4]; 37° C.) [µL/min/mg] | pERK WiDr (2 hr) Abs pIC50 ([1]; Abs) | HLM (CLint) ([5]; 37° C.) [µL/min/mg]
1 | O=C(Nc1cc(Oc2ccc3c(c2)CC(c2nc(-c4ccccc4)c[nH]2)CO3)ccn1)C1CC1(F)F (stereo not shown) [Compound 137, 2,2-difluoro-N-[4-[3-(4-phenyl-1H-imidazol-2-yl)chroman-6-yl]oxy-2-pyridyl]cyclopropanecarboxamide] | 74.1 | 0.1 | 28.2 | 277 | 32.6 |  |  |  |  |  |  |  | 
2 | O=C1CCc2c(Oc3ccc4c(c3)CC(c3nc5cc(F)c(F)cc5[nH]3)CO4)ccnc2N1 (stereo not shown) [Compound 23] |  |  |  |  |  | 229 | 0.5 | 224 | 30.5 | 29.9 |  |  | 
3 | O=C(Cn1ccnc1)Nc1cc(Oc2ccc3c(c2)CC(c2nc(-c4ccccc4)c[nH]2)CO3)ccn1 (stereo not shown) [Compound 144] | 95.5 | 0.7 | 60.3 |  | 27.1 |  |  |  |  |  | 29.3 |  | 
4 | O=C(CN1CCOCC1)Nc1cc(Oc2ccc3c(c2)CC(c2nc(-c4ccccc4)c[nH]2)CO3)ccn1 (stereo not shown) [Compound 149] | 933 | 0.25 | 363 |  | 63.7 |  |  |  |  |  | 231 |  | 
5 | Cc1cc(-c2c[nH]c(C3COc4ccc(Oc5ccnc6c5CCC(=O)N6)cc4C3)n2)ccn1 (stereo not shown) [Compound 117, 5-[3-[4-(2-methyl-4-pyridyl)-1H-imidazol-2-yl]chroman-6-yl]oxy-3,4-dihydro-1H-1,8-naphthyridin-2-one] | 589 | 2.6 | 110 |  | 43.3 |  |  |  |  |  | 13.4 |  | 
6 | CCc1cc(-c2c[nH]c(C3COc4ccc(Oc5ccnc6c5CCC(=O)N6)cc4C3)n2)n(C2CC2)n1 (stereo not shown) [Compound 113, 5-[3-[4-(2-cyclopropyl-5-ethyl-pyrazol-3-yl)-1H-imidazol-2-yl]chroman-6-yl]oxy-3,4-dihydro-1H-1,8-naphthyridin-2-one] | 1480 | 0.6 | 513 |  | 82.1 |  |  |  |  |  | 38.2 |  | 
7 | O=C1CCc2c(Oc3ccc4c(c3)CC(c3nc(-c5cccnc5C(F)(F)F)c[nH]3)CO4)ccnc2N1 (stereo not shown) [Compound 128, 5-[3-[4-[2-(trifluoromethyl)-3-pyridyl]-1H-imidazol-2-yl]chroman-6-yl]oxy-3,4-dihydro-1H-1,8-naphthyridin-2-one] |  | 0.9 | 263 |  |  |  |  |  |  |  |  |  | 
8 | N#Cc1ccc2[nH]c(C3COc4ccc(Oc5ccnc6c5CCC(=O)N6)cc4C3)nc2c1 (stereo not shown) [Compound 24] |  |  |  |  |  | 501 | 1.8 | 155 | 41.6 | 12.7 |  |  | 
9 | CN1CCC(C(=O)Nc2cc(Oc3ccc4c(c3)CC(c3nc(-c5ccccc5)c[nH]3)CO4)ccn2)CC1 (stereo not shown) [Compound 147, 1-methyl-N-[4-[3-(4-phenyl-1H-imidazol-2-yl)chroman-6-yl]oxy-2-pyridyl]piperidine-4-carboxamide] | 871 | 0.5 | 437 |  | 10.4 |  |  |  |  |  | 102 |  | 
10 | O=C1CCc2c(Oc3ccc4c(c3)CC(c3nc(-c5ccnc(C(F)(F)F)c5)c[nH]3)CO4)ccnc2N1 (stereo not shown) [Compound 8, 5-[3-[4-[2-(trifluoromethyl)-4-pyridyl]-1H-imidazol-2-yl]chroman-6-yl]oxy-3,4-dihydro-1H-1,8-naphthyridin-2-one] |  | 1.0 | 269 |  |  | 178 | 1.0 | 269 | 13.9 | 36 |  | 6.75 | 
11 | c1ccc(-c2c[nH]c(C3COc4ccc(Oc5ccnc(Nc6ccccn6)c5)cc4C3)n2)cc1 (stereo not shown) [Compound 140, 4-[3-(4-phenyl-1H-imidazol-2-yl)chroman-6-yl]oxy-N-(2-pyridyl)pyridin-2-amine] | 1260 | <0.1 | 2040 |  | 48.7 |  |  |  |  |  | 81.1 |  | 
12 | COc1cc(-c2c[nH]c(C3COc4ccc(Oc5ccnc6c5CCC(=O)N6)cc4C3)n2)ccn1 (stereo not shown) [Compound 104] |  | 1.9 | 347 | 23 |  |  |  |  |  |  |  | 5.96 | 27.8
13 | CC(C)CCc1c[nH]c(C2COc3ccc(Oc4ccnc5c4CCC(=O)N5)cc3C2)n1 (stereo not shown) [Compound 116] | 39.8 | 0.13 | 87.1 |  | 277 |  |  |  |  |  |  |  | 
14 | Cn1nc(C2CC2)cc1-c1c[nH]c(C2COc3ccc(Oc4ccnc5c4CCC(=O)N5)cc3C2)n1 (stereo not shown) [Compound 125, 5-[3-[4-(5-cyclopropyl-2-methyl-pyrazol-3-yl)-1H-imidazol-2-yl]chroman-6-yl]oxy-3,4-dihydro-1H-1,8-naphthyridin-2-one] | 977 |  | 138 |  |  |  |  |  |  |  |  |  | 
15 | O=C(Nc1cc(Oc2ccc3c(c2)CC(c2nc(-c4ccccc4)c[nH]2)CO3)ccn1)C1(F)CC1 (stereo not shown) [Compound 138] |  | <0.1 | 813 | 277 | 134 |  |  |  |  |  |  |  | 
16 | CC(C)(C)CCc1c[nH]c(C2COc3ccc(Oc4ccnc5c4CCC(=O)N5)cc3C2)n1 (stereo not shown) [Compound 115, 5-[3-[4-(3,3-dimethylbutyl)-1H-imidazol-2-yl]chroman-6-yl]oxy-3,4-dihydro-1H-1,8-naphthyridin-2-one] | 8.13 | 0.3 | 105 |  | 277 |  |  |  |  |  |  |  | 
17 | O=C1CCc2c(Oc3ccc4c(c3)CC(c3nc(-c5ccc(C(F)(F)F)nc5)c[nH]3)CO4)ccnc2N1 (stereo not shown) [Compound 127, 5-[3-[4-[6-(trifluoromethyl)-3-pyridyl]-1H-imidazol-2-yl]chroman-6-yl]oxy-3,4-dihydro-1H-1,8-naphthyridin-2-one] |  | 0.6 | 158 |  | 38.7 |  |  |  |  |  | 13.4 |  | 
18 | O=C(Nc1cc(Oc2ccc3c(c2)CC(c2nc(-c4ccccc4)c[nH]2)CO3)ccn1)C1CC(F)(F)C1 (stereo not shown) [Compound 139] |  | <0.1 | 219 | 277 | 99.8 |  |  |  |  |  |  |  | 
